Measured values reported in ChEMBL document CHEMBL1201862, “PubChem BioAssay data set” (2004).
Calls of active or inactive are those of the source.

Experiments:
[1] = molecular target: T1, Lysine-specific demethylase 4C (Homo sapiens, UniProt Q9H3R0); assay: GASC-1 (JMJD2C) histone demethylase inhibitors, dose response, biochemical, DELFIA europium, cherry-picked samples (AID 488835); assay type: functional
T1 sequence (Q9H3R0 whole entry): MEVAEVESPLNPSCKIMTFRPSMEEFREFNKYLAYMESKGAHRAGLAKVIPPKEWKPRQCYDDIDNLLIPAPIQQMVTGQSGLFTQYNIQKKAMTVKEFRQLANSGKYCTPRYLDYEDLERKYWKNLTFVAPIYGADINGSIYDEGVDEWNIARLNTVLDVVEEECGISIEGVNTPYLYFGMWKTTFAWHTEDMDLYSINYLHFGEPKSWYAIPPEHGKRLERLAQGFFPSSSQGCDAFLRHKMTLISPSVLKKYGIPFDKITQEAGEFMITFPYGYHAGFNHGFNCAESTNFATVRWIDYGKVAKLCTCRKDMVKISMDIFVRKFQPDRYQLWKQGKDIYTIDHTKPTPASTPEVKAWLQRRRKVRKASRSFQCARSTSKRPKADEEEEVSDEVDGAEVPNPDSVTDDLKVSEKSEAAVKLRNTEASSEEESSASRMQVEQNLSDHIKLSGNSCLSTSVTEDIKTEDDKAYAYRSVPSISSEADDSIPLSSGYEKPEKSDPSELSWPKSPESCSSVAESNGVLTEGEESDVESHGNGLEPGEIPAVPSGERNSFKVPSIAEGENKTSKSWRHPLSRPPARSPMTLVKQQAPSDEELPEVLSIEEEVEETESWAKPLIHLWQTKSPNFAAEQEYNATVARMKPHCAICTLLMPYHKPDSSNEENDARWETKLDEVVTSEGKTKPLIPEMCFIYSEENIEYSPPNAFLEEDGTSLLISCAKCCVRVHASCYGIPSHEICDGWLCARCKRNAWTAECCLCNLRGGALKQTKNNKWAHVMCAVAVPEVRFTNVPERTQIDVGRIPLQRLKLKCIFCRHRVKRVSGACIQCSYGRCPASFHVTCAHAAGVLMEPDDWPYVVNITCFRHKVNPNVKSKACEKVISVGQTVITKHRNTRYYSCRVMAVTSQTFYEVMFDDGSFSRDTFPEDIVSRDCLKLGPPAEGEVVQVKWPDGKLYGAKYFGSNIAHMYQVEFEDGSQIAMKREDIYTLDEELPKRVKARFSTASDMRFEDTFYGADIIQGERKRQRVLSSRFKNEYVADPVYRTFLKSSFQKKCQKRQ

INS1 = assay: beta cell apoptosis inhibitors, cytokine rescue, dose response, luminescence, retest (AID 449756); assay type: functional, cell-based; conditions: Rattus norvegicus;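 further: cell death triggered by IL-1 beta plus TNF-alpha plus IFN-gamma mixture; protective hits raise ATP signal compared with cytokine alone wells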
BJ [2] = assay: cytotoxicity toward BJ-TERT fibroblasts, dose response, cell-based, RAS-independent, luminescence (AID 1933); assay type: functional; conditions: Homo sapiens
BJ [3] = assay: cells; assay type: functional, cell-based; conditions: Homo sapiens
[4] = molecular target: Luciferin 4-monooxygenase (Photinus pyralis, UniProt P08659); assay: firefly luciferase enzyme inhibitors, dose response, biochemical, luminescence (AID 1891)
[5] = Luminescence Cell-Based Dose Confirmation HTS to Identify Inhibitors of Platelet Dense Granule Release. [Related pubchem assays: 1663 (Primary HTS), 1678 (Summary of Project)]; assay type: functional
BJ [6] = assay: cytotoxicity toward BJ-TERT-LT-ST fibroblasts, dose response, cell-based, RAS-independent, luminescence (AID 1935); assay type: functional; conditions: Homo sapiens;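 further: BJ fibroblasts immortalized with TERT plus LT and ST oncogenes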
[7] = cytotoxicity toward DRD oncogenic fibroblasts, dose response, cell-based, non-viral oncogenic, luminescence (AID 1934); assay type: functional; conditions: Homo sapiens
Caspase-6 = molecular target: T2, Caspase-6 (Homo sapiens, UniProt P55212); assay: human caspase-6 inhibitors, dose response, biochemical, VEID-R110 fluorescence, cherry-pick (AID 720632)
T2 sequence (P55212 whole entry): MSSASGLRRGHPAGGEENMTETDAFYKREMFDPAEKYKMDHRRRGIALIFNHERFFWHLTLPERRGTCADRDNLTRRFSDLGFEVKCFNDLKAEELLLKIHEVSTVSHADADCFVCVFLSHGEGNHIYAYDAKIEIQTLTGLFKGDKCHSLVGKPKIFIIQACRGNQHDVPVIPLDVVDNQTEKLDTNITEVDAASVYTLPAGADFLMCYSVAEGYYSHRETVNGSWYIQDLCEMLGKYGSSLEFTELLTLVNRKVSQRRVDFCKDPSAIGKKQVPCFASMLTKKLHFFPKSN

Trypsin = Trypsin (Sus scrofa, UniProt P00761); assay: porcine trypsin inhibitors, dose response, selectivity assay for Rce1 protease inhibitor project, biochemical, quenched peptide fluorescence, cherry-pick (AID 488789)
[8] = molecular target: T3, Replicative DNA helicase DnaB (Mycobacterium tuberculosis, UniProt P9WMR3); assay: DnaB intein splicing inhibitors, dose response, biochemical, cell-free fluorescence (AID 449749); assay type: functional
T3 sequence (P9WMR3 whole entry): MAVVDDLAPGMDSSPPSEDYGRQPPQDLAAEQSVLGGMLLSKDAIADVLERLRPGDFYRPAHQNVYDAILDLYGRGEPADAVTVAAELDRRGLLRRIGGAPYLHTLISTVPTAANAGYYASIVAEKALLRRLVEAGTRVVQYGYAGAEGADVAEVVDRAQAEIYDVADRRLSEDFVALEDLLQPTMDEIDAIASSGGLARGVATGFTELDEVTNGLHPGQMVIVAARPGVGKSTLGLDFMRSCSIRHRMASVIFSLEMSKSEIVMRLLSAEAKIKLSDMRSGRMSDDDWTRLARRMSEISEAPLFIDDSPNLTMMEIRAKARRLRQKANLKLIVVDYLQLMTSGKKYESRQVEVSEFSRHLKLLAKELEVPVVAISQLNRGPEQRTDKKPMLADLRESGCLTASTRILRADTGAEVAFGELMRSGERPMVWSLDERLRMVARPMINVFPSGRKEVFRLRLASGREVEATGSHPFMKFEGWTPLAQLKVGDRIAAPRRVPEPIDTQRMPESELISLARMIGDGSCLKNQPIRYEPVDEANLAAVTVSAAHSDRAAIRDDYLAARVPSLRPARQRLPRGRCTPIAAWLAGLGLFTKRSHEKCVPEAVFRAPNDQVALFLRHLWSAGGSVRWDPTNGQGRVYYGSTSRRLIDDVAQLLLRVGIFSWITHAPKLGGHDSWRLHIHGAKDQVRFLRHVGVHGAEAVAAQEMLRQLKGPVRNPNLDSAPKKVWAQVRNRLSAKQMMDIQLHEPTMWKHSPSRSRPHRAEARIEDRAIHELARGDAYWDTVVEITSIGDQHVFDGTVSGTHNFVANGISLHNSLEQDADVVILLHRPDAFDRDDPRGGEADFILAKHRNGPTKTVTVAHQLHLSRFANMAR

Protein RecA = molecular target: T4, Protein RecA (Mycobacterium tuberculosis, UniProt P9WHJ3); assay: Fluorescence Cell-Free Homogeneous Dose Retest to Identify Inhibitors of RecA-Intein Splicing Activity. [Related pubchem assays (depositor defined):AID2097, AID2223, AID489010, AID492950]; assay type: functional
T4 sequence (P9WHJ3 whole entry): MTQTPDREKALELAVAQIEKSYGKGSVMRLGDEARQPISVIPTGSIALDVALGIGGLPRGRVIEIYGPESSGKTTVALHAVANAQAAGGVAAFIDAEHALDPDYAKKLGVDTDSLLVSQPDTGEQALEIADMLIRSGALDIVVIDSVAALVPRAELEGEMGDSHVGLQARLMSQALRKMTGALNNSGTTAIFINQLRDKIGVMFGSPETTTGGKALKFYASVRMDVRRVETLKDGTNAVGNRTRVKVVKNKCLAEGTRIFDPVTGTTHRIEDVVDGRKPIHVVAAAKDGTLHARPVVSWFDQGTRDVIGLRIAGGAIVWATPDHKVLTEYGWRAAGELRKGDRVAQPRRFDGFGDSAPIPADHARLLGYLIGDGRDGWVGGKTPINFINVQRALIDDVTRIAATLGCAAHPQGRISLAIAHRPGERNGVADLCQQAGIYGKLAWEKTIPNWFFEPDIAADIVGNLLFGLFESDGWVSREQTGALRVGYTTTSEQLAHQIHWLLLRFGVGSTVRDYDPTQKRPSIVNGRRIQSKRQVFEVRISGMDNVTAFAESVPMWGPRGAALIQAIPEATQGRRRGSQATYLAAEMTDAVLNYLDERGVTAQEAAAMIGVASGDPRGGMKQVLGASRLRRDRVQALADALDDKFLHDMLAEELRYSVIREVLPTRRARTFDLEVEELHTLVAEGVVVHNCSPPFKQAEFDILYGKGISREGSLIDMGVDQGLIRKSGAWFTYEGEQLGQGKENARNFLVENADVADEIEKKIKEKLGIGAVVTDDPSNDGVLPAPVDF

Genome polyprotein = Genome polyprotein (dengue virus type 2, UniProt P29990); assay: Dengue-2 NS5 methyltransferase inhibitors, primary screen, biochemical, confirmation dose response (AID 588689); assay type: functional
[9] = human group III sPLA2 inhibitors, dose response, biochemical, QFRET, IC50 (AID 743457);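 further: green fluorescence rise as the enzyme cleaves BODIPY PC-A2 in liposomes; potency for inhibition of the enzyme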
[10] = molecular target: T5, Fructose-bisphosphate aldolase (Mycobacterium tuberculosis, UniProt P9WQA3); assay: Fluorescence-based biochemical high throughput dose response assay for inhibitors of the fructose-bisphosphate aldolase (FBA) of M. tuberculosis.; assay type: functional
T5 sequence (P9WQA3 whole entry): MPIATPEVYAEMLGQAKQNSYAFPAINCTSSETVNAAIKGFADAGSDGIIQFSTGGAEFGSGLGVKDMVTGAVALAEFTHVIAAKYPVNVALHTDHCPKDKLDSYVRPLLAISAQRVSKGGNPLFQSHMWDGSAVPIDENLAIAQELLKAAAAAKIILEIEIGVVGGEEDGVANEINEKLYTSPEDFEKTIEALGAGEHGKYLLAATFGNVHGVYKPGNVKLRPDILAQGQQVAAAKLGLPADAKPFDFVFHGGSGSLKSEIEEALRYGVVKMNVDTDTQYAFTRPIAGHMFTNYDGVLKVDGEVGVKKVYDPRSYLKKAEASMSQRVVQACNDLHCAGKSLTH

[11] = HEp-2 cell cytotoxicity, dose response, cytotoxicity control for RSV inhibitor project, HTS (AID 2410); assay type: functional; conditions: human respiratory syncytial virus
[12] = LGR2 antagonists, dose response, cell-based, HEK293, CRE-luciferase reporter, cherry pick, set 2 (AID 743343); assay type: functional;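 further: transfected cells were stimulated with diluted bursicon conditioned medium after compound addition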
[13] = MC4R antagonists, dose response, counter-screen for LGR2 antagonist project, cell-based, plate reader, cherry pick (AID 743444); assay type: functional;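 further: transfected HEK 293 cells stimulated with alpha-MSH peptide; potency of inhibitors of the alpha-MSH evoked signal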
[14] = HEK293 cell cytotoxicity, dose response, cytotoxicity control, plate reader, cherry-picked samples (AID 743446); assay type: functional, cell-based
Large T antigen = Large T antigen (Simian virus 40, UniProt P03070); assay type: functional, Betapolyomavirus macacae;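 further: Confirmatory-stage PubChem screen for compounds that inhibit SV40 T antigen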
[15] = HEK293T cytotoxicity, dose response, cytotoxicity control for miR-122 modulator project, cell-based, inhibitor set, cherry-pick, set 2 (AID 720697); assay type: functional
[16] = A549 cell cytotoxicity, dose response, cytotoxicity control, plate reader, cherry-pick, antagonist series (AID 743412); assay type: functional, cell-based

Sequence of Luciferin 4-monooxygenase (P08659 whole entry): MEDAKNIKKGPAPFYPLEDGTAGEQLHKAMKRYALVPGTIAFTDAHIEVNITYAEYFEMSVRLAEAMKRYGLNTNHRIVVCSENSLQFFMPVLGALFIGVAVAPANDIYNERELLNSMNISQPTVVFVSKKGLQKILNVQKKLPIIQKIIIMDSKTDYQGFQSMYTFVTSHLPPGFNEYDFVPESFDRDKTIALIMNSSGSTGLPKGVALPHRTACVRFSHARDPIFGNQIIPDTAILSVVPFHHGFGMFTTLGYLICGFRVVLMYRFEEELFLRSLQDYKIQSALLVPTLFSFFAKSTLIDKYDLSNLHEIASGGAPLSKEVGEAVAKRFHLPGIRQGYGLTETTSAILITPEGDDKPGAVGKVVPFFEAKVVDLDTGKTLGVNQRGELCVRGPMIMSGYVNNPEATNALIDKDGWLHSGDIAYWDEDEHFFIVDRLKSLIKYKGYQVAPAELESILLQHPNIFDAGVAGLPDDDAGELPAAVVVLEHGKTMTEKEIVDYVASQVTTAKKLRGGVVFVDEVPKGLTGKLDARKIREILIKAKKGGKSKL
Sequence of Large T antigen (P03070 whole entry): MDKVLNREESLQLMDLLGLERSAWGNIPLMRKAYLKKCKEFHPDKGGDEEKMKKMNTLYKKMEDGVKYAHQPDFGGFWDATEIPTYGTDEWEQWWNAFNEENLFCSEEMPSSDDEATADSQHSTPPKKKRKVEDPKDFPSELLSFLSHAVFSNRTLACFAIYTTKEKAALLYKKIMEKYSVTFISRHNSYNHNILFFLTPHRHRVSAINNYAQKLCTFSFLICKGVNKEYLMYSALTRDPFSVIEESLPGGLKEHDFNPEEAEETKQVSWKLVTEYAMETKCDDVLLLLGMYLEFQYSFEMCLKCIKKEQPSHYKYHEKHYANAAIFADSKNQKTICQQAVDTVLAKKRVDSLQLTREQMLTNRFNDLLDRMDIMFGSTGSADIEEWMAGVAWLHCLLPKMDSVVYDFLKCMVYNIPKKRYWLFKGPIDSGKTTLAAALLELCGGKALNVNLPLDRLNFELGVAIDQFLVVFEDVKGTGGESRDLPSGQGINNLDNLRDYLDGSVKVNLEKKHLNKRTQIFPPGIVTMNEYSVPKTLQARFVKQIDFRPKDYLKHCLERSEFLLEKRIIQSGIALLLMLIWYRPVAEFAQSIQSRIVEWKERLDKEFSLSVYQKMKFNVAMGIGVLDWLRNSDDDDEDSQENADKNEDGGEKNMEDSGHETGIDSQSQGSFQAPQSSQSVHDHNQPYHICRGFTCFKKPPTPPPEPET
Sequence of Trypsin (P00761 whole entry): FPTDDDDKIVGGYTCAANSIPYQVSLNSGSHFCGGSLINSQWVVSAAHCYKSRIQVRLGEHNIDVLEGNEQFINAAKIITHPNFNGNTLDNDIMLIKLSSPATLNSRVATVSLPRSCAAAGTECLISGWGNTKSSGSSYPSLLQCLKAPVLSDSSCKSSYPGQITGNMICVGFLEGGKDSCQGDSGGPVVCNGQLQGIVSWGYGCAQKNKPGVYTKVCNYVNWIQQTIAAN
Sequence of Genome polyprotein (P29990 2492-3391 limits assumed): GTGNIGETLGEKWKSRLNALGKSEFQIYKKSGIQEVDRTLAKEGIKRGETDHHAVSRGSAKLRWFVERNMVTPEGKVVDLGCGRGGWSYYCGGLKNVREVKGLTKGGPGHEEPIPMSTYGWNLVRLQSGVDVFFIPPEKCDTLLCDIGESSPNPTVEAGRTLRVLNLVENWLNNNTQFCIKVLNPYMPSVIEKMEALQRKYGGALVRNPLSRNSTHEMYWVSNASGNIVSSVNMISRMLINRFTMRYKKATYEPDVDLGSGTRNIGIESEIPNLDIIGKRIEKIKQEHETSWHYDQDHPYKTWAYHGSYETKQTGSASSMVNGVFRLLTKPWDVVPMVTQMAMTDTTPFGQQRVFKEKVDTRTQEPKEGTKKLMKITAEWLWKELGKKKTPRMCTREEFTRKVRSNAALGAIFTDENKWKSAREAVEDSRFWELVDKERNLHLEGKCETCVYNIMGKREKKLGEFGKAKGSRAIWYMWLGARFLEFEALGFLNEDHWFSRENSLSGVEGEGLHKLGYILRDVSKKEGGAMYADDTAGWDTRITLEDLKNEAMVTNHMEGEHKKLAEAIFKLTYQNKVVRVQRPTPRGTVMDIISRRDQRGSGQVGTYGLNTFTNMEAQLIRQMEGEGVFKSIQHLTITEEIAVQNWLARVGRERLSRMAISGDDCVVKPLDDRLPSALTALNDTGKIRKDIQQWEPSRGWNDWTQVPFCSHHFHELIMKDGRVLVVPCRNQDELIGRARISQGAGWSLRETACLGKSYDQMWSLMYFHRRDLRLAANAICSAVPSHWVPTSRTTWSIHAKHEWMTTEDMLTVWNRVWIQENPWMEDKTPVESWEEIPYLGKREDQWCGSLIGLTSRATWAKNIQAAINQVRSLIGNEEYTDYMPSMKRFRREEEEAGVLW

## O=S(=O)(c1ccc2nc(Nc3ccccc3)ccc2c1)N1CCCCC1
[1]
  AC50: 6.53 µM (active)
INS1
  AC50: 12.2 µM (active)

## Cn1c(N=Nc2ccccc2)nc2ccccc21
BJ [2]
  EC50: 6.48 µM (active)
BJ [3]
  EC50: 4.78 µM (inconclusive)
[4]
  EC50: 1.5 µM (active)
[5]
  EC50: 1.78 µM (active)
BJ [6]
  EC50: 9.38 µM (active)
[7]
  EC50: 6.84 µM (inconclusive)
Caspase-6
  AC50: 38.1 µM (active)

## O=C(Nc1ccccc1)n1ccc(-c2ccc(-n3ccnc3)cc2)n1
Trypsin
  AC50: 17.9 µM (active)

## COc1ccc2nc3cccc(OC)c3nc2c1
[8]
  AC50: > 380 µM (inactive)
Protein RecA
  EC50: 20.8 µM (active)
Genome polyprotein
  IC50: > 100 µM (active)
Caspase-6
  AC50: 23.1 µM (active)

## CC(C)(C)c1csc(NNC(=O)c2ccc(Cl)cc2)n1
[9]
  IC50: > 122 µM (inactive)

## CCOC(=O)c1c(C)n(C)c2ccc(O)c(S(=O)(=O)c3ccccc3)c12
[1]
  AC50: 9.92 µM (active)

## CCS(=O)(=O)N1N=C(c2ccc(NS(C)(=O)=O)cc2)CC1c1ccccc1 (stereo not given)
[10]
  IC50: > 0.37 µM (active)

## CCOc1ccc(NC(=NCc2ccc3c(c2)OCO3)SC2CC(=O)N(c3ccc(C(=O)O)cc3)C2=O)cc1 (stereo not given)
[11]
  CC50: 22.8 µM (active)
cells
  IC50: 15.6 µM (active)

## CSc1nc2ccc(NC(=O)c3ccccn3)cc2s1
[12]
  AC50: 4.16 µM (active)
[13]
  AC50: 5.41 µM (active)
[14]
  AC50: > 52 µM (inactive)

## O=S(=O)(Nc1ccc(O)cc1)c1cccc2cccnc12
Large T antigen
  IC50: 7.36 µM (active)

## O=C(NNc1nc(-c2ccccc2)cs1)c1ccco1
[9]
  IC50: > 122 µM (inactive)

## CCn1c(=O)c2cc(C(=O)N(C)c3cc(C)ccc3OC)sc2c2ccccc21
[11]
  CC50: 21.2 µM (active)
cells
  IC50: 21.5 µM (active)

## CCC(C)N=C(S)N1CCN(C)CC1 (stereo not given)
[1]
  AC50: 26.5 µM (active)

## Sc1nnc(CCc2ccccc2)n1-c1ccc(Cl)cc1
[9]
  IC50: > 122 µM (inactive)

## Cc1nc2cc(-c3cccs3)nn2c(O)c1C
[10]
  IC50: > 3.33 µM (active)

## CC(C)NC(=O)N1[C@H](CO)[C@@H](c2ccccc2)[C@@H]1CN(C)C(=O)c1cccnc1
[15]
  AC50: 0.538 µM (active)

## COCC(=O)N1CCCCN2[C@H](CO)[C@H](c3ccc(-c4cccc(C)c4)cc3)[C@@H]2C1
[16]
  AC50: > 52 µM (inactive)
[12]
  AC50: 18 µM (active)
[13]
  AC50: 23.6 µM (active)
[14]
  AC50: > 52 µM (inactive)

## CC(=N)/C(C#N)=C(/O)COC(=O)c1ccncc1
cells
  IC50: 1.14 µM (active)
